Experimental data from patent US7378425B2, “(1-Indanone)-(1,2,3,6-tetrahydropyridine) compounds” (Eisai R & D Management Co., Ltd., priority 2002, dated 2008).
Where a name gives a salt, the structure may show the parent alone. Read-outs that look alike come from different tables or passages of the source.

How the values were obtained:
[1] = molecular target: T1, acetylcholinesterase (rat brain homogenate) (Rattus norvegicus, UniProt P37136); experiment: biochemical
T1 construct: Using a rat brain homogenate as a source of acetylcholinesterase; from tissue; host or cells: rat brain homogenate
T1 sequence (P37136 32-614): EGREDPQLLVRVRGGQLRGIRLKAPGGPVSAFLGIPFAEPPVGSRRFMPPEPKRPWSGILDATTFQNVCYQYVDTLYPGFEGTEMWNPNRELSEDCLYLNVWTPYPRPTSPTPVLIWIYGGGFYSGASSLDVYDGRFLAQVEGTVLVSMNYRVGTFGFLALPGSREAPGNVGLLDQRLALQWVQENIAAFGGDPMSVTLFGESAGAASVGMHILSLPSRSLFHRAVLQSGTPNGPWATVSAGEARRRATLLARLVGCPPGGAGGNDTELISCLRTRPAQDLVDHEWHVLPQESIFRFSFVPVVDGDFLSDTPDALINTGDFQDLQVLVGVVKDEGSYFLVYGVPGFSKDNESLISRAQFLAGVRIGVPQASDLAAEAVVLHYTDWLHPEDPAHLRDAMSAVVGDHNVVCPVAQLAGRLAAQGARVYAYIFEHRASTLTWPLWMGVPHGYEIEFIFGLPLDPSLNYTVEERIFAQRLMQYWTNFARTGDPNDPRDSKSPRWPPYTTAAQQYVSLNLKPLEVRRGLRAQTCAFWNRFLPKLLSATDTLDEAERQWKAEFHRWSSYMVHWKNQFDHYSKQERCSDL
Protocol: Inhibitory Effect on Acetylcholinesterase
To DTNB (5,5′-dithiobis(2-nitrobenzoic acid)), acethylthiocholine (as a substrate) and a test compound was added the rat brain homogenate and incubated.

[2] = molecular target: sigma receptor (guinea pig brain crude membrane fraction); experiment: Sigma receptor binding assay (3H-DTG); conditions: inhibition of 3H-DTG binding to guinea pig brain crude membrane fraction, 25° C., 1 hour
Protocol: Sigma Receptor Binding Assay
(1) Preparation of Receptor
The washing procedure was repeated once more under the same conditions, and the resulting crude membrane fraction was subjected to the assay.
The specific binding and the non-specific binding in the absence of the test compound were determined in the same way as above except for using 50% DMSO solution instead of the test compound and using a 100 μM Haloperidol solution instead of the test compound, respectively.
(3) Determination of Inhibition
The inhibitions of the test compound at individual concentrations were determined from the ratio of the specific binding in the presence of the test compound to the specific binding in the absence thereof. The dose-response curve was regressed according to a logit-log model in which the ratio of the specific binding in the presence of the test compound to the specific binding in the absence thereof was subjected to logit transformation and plotted against the common logarithm value of each concentration.

COc1cc2c(cc1OC)C(=O)C(CC1=CCN(Cc3ccccc3)CC1)C2 (stereo not shown) [Example 1, 1-benzyl-4-[(5,6-dimethoxy-1-indanon)-2-yl]methyl-1,2,3,6-tetrahydropyridine hydrochloride]
IC50 [1]: 4.2 nM

CCOc1cc2c(cc1OCC)C(=O)C(CC1=CCN(Cc3ccccc3)CC1)C2 (stereo not shown) [Example 2, 1-benzyl-4-[(5,6-diethoxy-1-indanon)-2-yl]methyl-1,2,3,6-tetrahydropyridine hydrochloride]
IC50 [2]: 5 nM

CCOc1cc2c(cc1OCC)C(=O)C(F)(CC1=CCN(Cc3ccccc3)CC1)C2 (stereo not shown) [Example 3, 1-benzyl-4-[(5,6-diethoxy-2-fluoro-1-indanon)-2-yl]methyl-1,2,3,6-tetrahydropyridine hydrochloride]
IC50 ([1]; rat brain homogenate, acetylthiocholine substrate, DTNB, absorbance at 412 nm, read-out: Acetylcholinesterase inhibition IC50): 0.4 nM | IC50 [2]: 4.7 nM
